Test results from paper PMC9404946, “Antioxidant Capacities and Enzymatic Inhibitory Effects of Different Solvent Fractions and Major Flavones from Celery Seeds Produced in Different Geographic Areas in China” (Antioxidants, 2022).
Marks after values point to notes of the source that are not given here.

Key:
[1] = ABTS radical scavenging assay; format: biochemical
Experimental: The ABTS radical scavenging activity of each fraction was measured based on the method with slight modifications. A 28 mM ABTS and a 9.6 mM potassium persulfate working solution were prepared, mixed in equal volumes, and the mixture was left to stand for 16 h at room temperature, protected from light. The working solution was diluted with EtOH to reach an absorbance of 0.70 ± 0.02 at 740 nm and used for further experiments. Different extracts or compounds (20 μL) concentrations were mixed with the working solution (180 μL). The mixture was incubated at room temperature for 15 min, and the absorbance was recorded at 734 nm (As). DMSO and ABTS reagents in the same volume were mixed to measure the absorbance as the control (A0). Then, the antioxidant activity of the mixture was determined by calculating the decrease using the following formula:ABTS radical inhibiting activity (%) = (A0 − As)/A0 × 100, where A0 is the absorbance of the control (untreated group), and As is the absorbance of the test sample. BHT and VC were used as the positive control.

[2] = DPPH radical scavenging assay; format: biochemical; details: main flavonoids and positive controls (Table 5)
Experimental: The scavenging ability of the free radical DPPH was investigated as described with slight modification. The sample solution (100 μL) and DPPH reagent (0.11 mg/mL, 100 μL) were mixed and incubated (30 min) at room temperature and in darkness. Then, a multi-detection microplate reader was used to measure the absorbance at 517 nm (As). The control group was mixed with DMSO and DPPH reagent in the same volume (A0). A formula was used to calculate the DPPH radical scavenging activity:DPPH radical scavenging activity (%) = [(A0 − As)/A0] × 100, where A0 is the absorbance of the control (untreated group), and As is the absorbance of the test sample. BHT and VC were used as the positive control.

[3] = Ferric reducing antioxidant power (FRAP); format: biochemical
Experimental: The measurement of FRAP was based on previous studies with slight modifications. A total of 180 uL of FRAP working solution (acetate buffer (pH 3.6): ferric chloride solution (20 mM): TPTZ solution (10 mM) = 10:1:1) was mixed with 20 μL of sample solution and incubated for 30 min at room temperature. The absorbance was measured at 593 nm. The standard curve was linear from 0 to 30 μg Trolox with an R^2 value of 0.9999 (Absorbance: y = 0.0943x + 0.0126, Figure S2I). The results are expressed as milligrams of TE/g dry weight.

[4] = Cupric reducing antioxidant capacity (CUPRAC); format: biochemical; details: main flavonoids (Table 5)
Experimental: The cupric ion reducing antioxidant capacity (CUPRAC) was measured according to the method of Drouet et al. with modifications. Briefly, 50 μL of the extract sample was mixed with 150 μL of the CUPRAC solution (composed of 10 mM CuCl2, 7.5 mM neocuproine, and 1 M NH4Ac buffer pH 7; ratio 1:1:1 (v/v/v)). After incubation for 15 min at room temperature, the absorbance value at 450 nm of the reaction mixture was measured. The results were reported as […] of Trolox equivalents (TE) per gram of extract (mg TE/g extract) (calibration curve from different concentrations: 0–70 μg/mL; Absorbance: y = 0.0279x + 0.0126, R² = 0.9997, Figure S2J).

[5] = Metal chelating activity on ferrous ions (ferrozine); format: biochemical; details: for Metal Chelating: main flavonoids (Table 5)
Experimental: The iron-chelating activity of each fraction was estimated by the method described by Sapatinha et al. with modifications. Briefly, 50 μL of each sample solution and 50 μL of 1 mM FeCl2 were mixed. Then, the reaction was initiated by adding 100 μL of 2.5 mM ferrozine solution. The mixture was kept at room temperature for 10 min. The absorbance of the resulting solution was measured at 562 nm. The results are expressed as milligrams of ethylenediaminetetraacetic acid (EDTA) equivalent per gram of extract (mg EDTAE/g extract) (calibration curve from different concentrations: 0–55 μg/mL; Absorbance: y = −0.0477x + 3.0616, R² = 0.9966, Figure S2K).

[6] = target: Saccharomyces cerevisiae α-glucosidase; assay: α-Glucosidase inhibitory activity assay (PNPG substrate); format: biochemical; details: main flavonoids and acarbose (Table 5)
Source text: (§1) Butylated hydroxytoluene (BHT) and ethylene diamine tetraacetic acid (EDTA) were purchased from Sigma-Aldrich (Shanghai, China). […] Methanol (MeOH), ethanol (EtOH), and dichloromethane (DCM) were purchased from Tianjin Fuyu (Tianjin, China). Ammonium acetate (NH4Ac), iodine (I2), potassium iodide (KI), soluble-starch, acetic acid (AcOH), n-butanol (nBuOH), and silica sand were obtained from Guoyao (Shanghai, China). The products were purified by flash column chromatography on 200–300 mesh silica gel purchased from Xinnuo Huagong (Yantai, Shandong, China). Methanol and acetonitrile of the high-performance liquid chromatography (HPLC) grade were purchased from Thermo Fisher Scientific (Waltham, MA, USA). DMSO-D6 was purchased from J&K (Beijing, China).
The α-glucosidase inhibition test was performed as previously described with some variations. PBS (0.1 M, pH = 6.8), α-glucosidase (5 U/mL), and PNPG (5 mM) were prepared and stored at 4 °C for further use. In total, 20 μL of different concentration sample solution (DMSO dissolved) or DMSO, 60 μL of PBS, and 20 μL of α-Glucosidase (0.5 U/mL) were added to a 96-well plate and incubated for 20 min at 37 °C. Then, 20 μL of PNPG (5 mM) solution was added and incubated for another 15 min at 37 °C. Subsequently, 80 μL of Na2CO3 (0.1 M) solution was added to terminate the reaction. […] Inhibition (%) was calculated based on absorbance with the following formula: Inhibitor (%) = (A0 − As)/A0 × 100%, where A0 is the absorbance of the blank group, and As is the absorbance of the test group. The IC50 values were calculated using GraphPad Prism 8.0 (GraphPad Software, Inc., La Jolla, CA, USA) to evaluate the α-glucosidase inhibition activity of the tested compounds.

[7] = target: T1, porcine pancreatic α-amylase (Sus scrofa, UniProt P00690); assay: α-Amylase inhibitory activity (starch-iodine); format: biochemical
T1 construct: purchased Shanghai Yuanye Biotechnology Co. (Shanghai, China)
T1 sequence (P00690 16-511): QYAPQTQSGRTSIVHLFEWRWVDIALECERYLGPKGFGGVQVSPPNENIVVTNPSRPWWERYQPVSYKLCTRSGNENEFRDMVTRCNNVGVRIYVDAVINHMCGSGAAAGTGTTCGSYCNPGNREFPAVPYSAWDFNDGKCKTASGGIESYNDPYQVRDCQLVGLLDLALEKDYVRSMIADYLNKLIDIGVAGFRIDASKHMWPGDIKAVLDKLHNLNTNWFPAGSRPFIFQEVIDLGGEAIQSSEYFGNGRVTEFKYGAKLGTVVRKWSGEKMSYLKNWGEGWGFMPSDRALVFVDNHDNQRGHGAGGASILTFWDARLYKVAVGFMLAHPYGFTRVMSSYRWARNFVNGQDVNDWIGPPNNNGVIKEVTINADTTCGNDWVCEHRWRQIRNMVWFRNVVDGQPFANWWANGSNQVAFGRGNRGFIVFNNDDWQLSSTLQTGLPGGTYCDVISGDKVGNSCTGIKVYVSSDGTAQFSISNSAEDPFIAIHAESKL
Source text: as §1

[8] = target: α-amylase; set-up: method as in PMID 32344340; details: previously reported; cited from earlier work
[9] = main flavonoids and positive controls (Table 5)
[10] = solvent fractions and positive controls (Table 3 and text)
[11] = solvent fractions and positive control, Trolox equivalent
[12] = main flavonoids and positive control (Table 5)

O=C1O[C@H]([C@@H](O)CO)C(O)=C1O [VC, ascorbic acid, reference compound]
ABTS IC50 [1, 9]: 3.79 ± 0.04 ^j μg/mL | ABTS IC50 [1, 10]: 5.72 ± 0.10 ^l μg/mL | DPPH IC50 [2]: 5.32 ± 0.11 ^j μM | FRAP [3, 11]: 406.39 ± 4.65 ^d mg TE/g

COc1cc(-c2cc(=O)c3c(O)cc(OC4OC(CO)C(O)C(O)C4OC4OCC(O)(CO)C4O)cc3o2)ccc1O (stereo not drawn) [Graveobioside B]
ABTS IC50 [1, 9]: 29.43 ± 1.33 ^e μg/mL | CUPRAC [4]: 328.10 ± 14.10 ^e mg TE/g | DPPH IC50 [2]: 3266.33 ± 365.08 ^c μM | Metal Chelating [5]: 21.32 ± 1.51 ^e mg EDTAE/g | IC50 [6]: 104 ± 1.85 µM | FRAP [3, 12]: 166.87 ± 2.97 ^g mg TE/g

Cc1cc(C(C)(C)C)c(O)c(C(C)(C)C)c1 [BHT, Butylated hydroxytoluene, reference compound]
ABTS IC50 [1, 9]: 5.72 ± 0.10 ^h,i μg/mL | ABTS IC50 [1, 10]: 3.79 ± 0.04 ^l μg/mL | DPPH IC50 [2]: 39.13 ± 0.93 ^g μM | FRAP [3, 12]: 406.39 ± 4.65 ^d mg TE/g | FRAP [3, 11]: 406.39 mg TE/g

COc1cc(-c2cc(=O)c3c(O)cc(O)cc3o2)ccc1O [Chrysoeriol]
ABTS IC50 [1, 9]: 16.69 ± 0.55 ^f μg/mL | CUPRAC [4]: 947.43 ± 5.72 ^b mg TE/g | DPPH IC50 [2]: 580.10 ± 35.54 ^f μM | Fe2+ chelating capacity [5]: 36.49 mg EDTA/g | Metal Chelating [5]: 36.49 ± 0.22 ^d mg EDTAE/g | FRAP [3, 12]: 337.96 ± 0.88 ^e mg TE/g

O=c1cc(-c2ccc(O)cc2)oc2cc(O[C@@H]3O[C@H](CO)[C@@H](O)[C@H](O)[C@H]3O)cc(O)c12 [Apigenin-7-O-Glucoside]
ABTS IC50 [1, 9]: 461.00 ± 11.04 ^b μg/mL | CUPRAC [4]: 33.45 ± 0.51 ^g mg TE/g | DPPH IC50 [2]: 4885.33 ± 56.01 ^b μM | Metal Chelating [5]: 5.69 ± 0.19 ^h mg EDTAE/g | IC50 [7]: 1740 ± 40 µM | IC50 [6]: 77.5 ± 4.84 µM | FRAP [3, 12]: 25.90 ± 0.49 ^i mg TE/g

COc1cc(-c2cc(=O)c3c(O)cc(O[C@@H]4O[C@H](CO)[C@@H](O)[C@H](O)[C@H]4O)cc3o2)ccc1O [Chrysoeriol-7-O-glucosid]
ABTS IC50 [1, 9]: 46.64 ± 1.24 ^d μg/mL | CUPRAC [4]: 495.51 ± 6.64 ^d mg TE/g | DPPH IC50 [2]: 848.23 ± 143.61 ^e μM | Metal Chelating [5]: 8.22 ± 0.84 ^g mg EDTAE/g | IC50 [7]: 1860 ± 20 µM | IC50 [6]: 39.8 ± 1.05 µM | FRAP [3, 12]: 203.35 ± 6.33 ^f mg TE/g

O=c1cc(-c2ccc(O)c(O)c2)oc2cc(OC3OC(CO)C(O)C(O)C3OC3OCC(O)(CO)C3O)cc(O)c12 (stereo not drawn) [Graveobioside A]
ABTS IC50 [1, 9]: 6.88 ± 0.05 ^h μg/mL | CUPRAC [4]: 887.17 ± 8.95 ^c mg TE/g | DPPH IC50 [2]: 12.47 ± 0.08 ^h μM | Metal Chelating [5]: 89.98 ± 0.42 ^a mg EDTAE/g | IC50 [6]: 104 ± 5.75 µM | FRAP [3, 12]: 882.04 ± 0.43 ^b mg TE/g

O=c1cc(-c2ccc(O)cc2)oc2cc(O[C@@H]3O[C@H](CO)[C@@H](O)[C@H](O)[C@H]3O[C@@H]3OC[C@](O)(CO)[C@H]3O)cc(O)c12 [Apiin]
ABTS IC50 [1, 9]: 1055.33 ± 24.68 ^a μg/mL | CUPRAC [4]: 25.26 ± 0.18 ^g mg TE/g | DPPH IC50 [2]: 7686.33 ± 200.18 ^a μM | Metal Chelating [5]: 17.15 ± 1.37 ^f mg EDTAE/g | α-amylase inhibitory activity IC50 [8]: 1084 µg/mL | IC50 [6]: 199 ± 14.9 µM | FRAP [3, 12]: 5.97 ± 1.49 ^j mg TE/g

O=c1cc(-c2ccc(O)cc2)oc2cc(O)cc(O)c12 [Apigenin]
ABTS IC50 [1, 9]: 223.63 ± 10.35 ^c μg/mL | CUPRAC [4]: 76.44 ± 1.83 ^f mg TE/g | DPPH IC50 [2]: 1292.00 ± 31.00 ^d μM | Fe2+ chelating capacity [5]: 54.20 mg EDTA/g | Metal Chelating [5]: 54.20 ± 1.28 ^c mg EDTAE/g | IC50 [6]: 80 ± 0.85 µM | FRAP [3, 12]: 59.41 ± 0.24 ^h mg TE/g

O=c1cc(-c2ccc(O)c(O)c2)oc2cc(O[C@@H]3O[C@H](CO)[C@@H](O)[C@H](O)[C@H]3O)cc(O)c12 [Luteolin-7-O-glucoside]
ABTS IC50 [1, 9]: 9.41 ± 0.42 ^g μg/mL | CUPRAC [4]: 955.05 ± 3.64 ^b mg TE/g | DPPH IC50 [2]: 9.28 ± 0.06 ^i μM | Metal Chelating [5]: 8.51 ± 0.21 ^g mg EDTAE/g | IC50 [6]: 49.9 ± 2.85 µM | FRAP [3, 12]: 830.71 ± 8.52 ^c mg TE/g

O=c1cc(-c2ccc(O)c(O)c2)oc2cc(O)cc(O)c12 [Luteolin]
ABTS IC50 [1, 9]: 4.58 ± 0.02 ^i,j μg/mL | CUPRAC [4]: 1502.63 ± 15.92 ^a mg TE/g | DPPH IC50 [2]: 4.65 ± 0.16 ^j μM | Fe2+ chelating capacity [5]: 88.44 mg EDTA/g | Metal Chelating [5]: 88.44 ±0.64 ^b mg EDTAE/g | IC50 [7]: 2110 ± 10 µM | IC50 [6]: 58.8 ± 2.97 µM | FRAP [3, 12]: 1025.12 ± 10.78 ^a mg TE/g
